What was measured:
Format in all cases: cell-based
Ms5HT7 receptor [1] = target: T1, Ms5HT7 receptor (Manduca sexta, UniProt S4UQW2); test: two-electrode voltage clamp, Xenopus oocytes, endogenous chloride current; details: 3 µM; partial agonist; relative to 1 µM 5-HT
T1 construct: gene 5HT7; Xenopus oocytes (pBS-MXT, receptor cRNA alone)
T1 sequence (S4UQW2 38-563): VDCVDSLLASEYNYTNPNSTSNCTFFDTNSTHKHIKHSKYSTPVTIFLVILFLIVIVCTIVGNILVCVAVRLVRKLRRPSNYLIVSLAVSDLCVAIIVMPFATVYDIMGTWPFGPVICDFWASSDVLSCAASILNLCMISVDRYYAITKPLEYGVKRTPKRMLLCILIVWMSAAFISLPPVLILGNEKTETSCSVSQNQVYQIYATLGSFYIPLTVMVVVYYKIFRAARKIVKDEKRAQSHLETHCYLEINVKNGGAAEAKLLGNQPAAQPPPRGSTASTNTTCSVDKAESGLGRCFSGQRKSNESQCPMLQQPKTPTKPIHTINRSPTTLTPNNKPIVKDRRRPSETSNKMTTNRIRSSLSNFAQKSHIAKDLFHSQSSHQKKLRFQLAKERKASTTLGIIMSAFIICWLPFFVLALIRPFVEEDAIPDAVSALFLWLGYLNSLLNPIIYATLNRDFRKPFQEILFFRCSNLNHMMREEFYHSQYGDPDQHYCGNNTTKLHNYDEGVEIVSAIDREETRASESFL
Description: two-electrode voltage clamp, Xenopus oocytes, endogenous chloride current on Ms5HT7 receptor

Ms5HT1B receptor [2] = target: T2, Ms5HT1B receptor (Manduca sexta, UniProt Q0GMY1); test: as above; details: for activity at 3 µM: read-out: 5HT1B receptor
T2 construct: gene 5HT1B
T2 sequence (Q0GMY1 1-448): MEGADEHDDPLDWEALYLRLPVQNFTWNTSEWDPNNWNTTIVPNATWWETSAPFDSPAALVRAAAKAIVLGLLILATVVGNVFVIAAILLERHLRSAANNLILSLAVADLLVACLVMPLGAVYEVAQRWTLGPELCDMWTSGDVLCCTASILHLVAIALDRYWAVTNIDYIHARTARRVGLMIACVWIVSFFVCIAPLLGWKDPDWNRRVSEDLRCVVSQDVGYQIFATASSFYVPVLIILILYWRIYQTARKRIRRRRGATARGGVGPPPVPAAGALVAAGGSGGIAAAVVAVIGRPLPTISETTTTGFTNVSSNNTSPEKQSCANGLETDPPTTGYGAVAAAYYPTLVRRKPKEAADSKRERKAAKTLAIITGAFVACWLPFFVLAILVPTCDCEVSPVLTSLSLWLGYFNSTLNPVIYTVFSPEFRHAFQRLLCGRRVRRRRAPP
Description: two-electrode voltage clamp, Xenopus oocytes, endogenous chloride current on Ms5HT1B receptor

Ms5HT1A receptor = target: T3, Ms5HT1A receptor (Manduca sexta, UniProt Q0GMY2); test: two-electrode voltage clamp, Xenopus oocytes, CFTR current; details: read-out: 5HT1A receptor
T3 construct: gene 5HT1A; about 51 kDa
T3 sequence (Q0GMY2 1-463): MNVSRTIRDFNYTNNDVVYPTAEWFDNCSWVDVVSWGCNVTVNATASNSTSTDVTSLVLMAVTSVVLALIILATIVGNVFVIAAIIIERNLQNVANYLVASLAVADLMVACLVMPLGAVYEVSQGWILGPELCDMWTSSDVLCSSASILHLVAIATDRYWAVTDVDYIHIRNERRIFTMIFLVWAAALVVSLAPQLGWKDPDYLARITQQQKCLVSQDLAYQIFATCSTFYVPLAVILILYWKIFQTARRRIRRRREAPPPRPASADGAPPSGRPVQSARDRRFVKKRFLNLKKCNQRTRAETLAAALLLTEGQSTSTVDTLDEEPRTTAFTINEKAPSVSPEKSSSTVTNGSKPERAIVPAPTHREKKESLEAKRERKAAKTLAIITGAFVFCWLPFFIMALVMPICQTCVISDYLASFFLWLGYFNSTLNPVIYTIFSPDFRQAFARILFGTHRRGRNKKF
Description: two-electrode voltage clamp, Xenopus oocytes, CFTR current on Ms5HT1A receptor

Ms5HT1B receptor [3] = target: T2, Ms5HT1B receptor; test: two-electrode voltage clamp, Xenopus oocytes, endogenous calcium-dependent chloride current
Ms5HT2 receptor = target: T4, Ms5HT2 receptor (Manduca sexta, UniProt S4USL2); test: as above
T4 construct: gene 5HT2
T4 sequence (S4USL2 1-635): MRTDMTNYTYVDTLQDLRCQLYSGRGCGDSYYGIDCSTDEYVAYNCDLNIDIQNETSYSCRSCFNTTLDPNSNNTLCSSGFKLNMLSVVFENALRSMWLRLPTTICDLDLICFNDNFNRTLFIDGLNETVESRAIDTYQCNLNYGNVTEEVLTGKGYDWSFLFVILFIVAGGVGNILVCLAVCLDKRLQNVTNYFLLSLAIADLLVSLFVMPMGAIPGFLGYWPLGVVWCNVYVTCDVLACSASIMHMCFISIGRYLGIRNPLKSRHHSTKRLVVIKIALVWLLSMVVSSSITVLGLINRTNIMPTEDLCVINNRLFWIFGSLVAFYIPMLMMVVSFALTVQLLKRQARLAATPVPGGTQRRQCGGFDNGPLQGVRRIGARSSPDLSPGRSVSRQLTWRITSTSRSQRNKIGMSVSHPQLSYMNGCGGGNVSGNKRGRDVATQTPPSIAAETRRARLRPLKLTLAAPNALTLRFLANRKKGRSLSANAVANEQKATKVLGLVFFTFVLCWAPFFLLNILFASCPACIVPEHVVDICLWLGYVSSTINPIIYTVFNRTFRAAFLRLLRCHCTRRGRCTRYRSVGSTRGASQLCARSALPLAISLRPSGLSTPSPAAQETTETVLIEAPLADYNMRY

Ms5HT7 receptor [4] = target: T1, Ms5HT7 receptor; test: as above

CC[C@@H](CO)NC(=O)[C@@H]1C=C2c3cccc4c3c(cn4C)C[C@H]2N(C)C1 [methysergide]
Ms5HT7 (Ms5HT7 receptor [1]): 49.5 ± 12%

COc1ccccc1N1CCN(CCN(C(=O)C2CCCCC2)c2ccccn2)CC1 [WAY100635]
activity at 3 µM (Ms5HT1B receptor [2]): 38.2 ± 3.3% | activity at 3 µM (Ms5HT1A receptor): 76.8 ± 15.8%

CSc1ccc2c(c1)C(N1CCN(C)CC1)Cc1ccccc1S2 (centres unmarked) [methiothepin]
activity at 3 µM (Ms5HT1B receptor [2]): 36.4 ± 12.6%

NCCc1c[nH]c2ccc(O)cc12 [serotonin]
EC50 (Ms5HT1B receptor [3]): 57 nM | EC50 (Ms5HT2 receptor): 25.4 nM | EC50 (Ms5HT7 receptor [4]): 10.5 nM

COc1ccc2[nH]cc(CCN)c2c1 [5-methoxytryptamine]
5HT1B receptor (Ms5HT1B receptor [2]; agonist, relative to 1 µM 5-HT): 7.2 ± 1.4%
